“And” between values parts separate entries of the source, which are not always exact repeats. Equal entries are not always repeated. Where two headings read alike, the source gives them in different places.
Columns and labels:
[1] = system: rabbit corneal cell line (SIRC)
HSV-1 strain McKrae = experiment: HSV-1 epithelial keratitis rabbit model, topical treatment, SLE scores; assay type: in vivo; settings: 14 days post-inoculation, 1% topical 5 times per day
Excerpt: (§1) The rabbit eye is an excellent model to study acute HSV-1 epithelial keratitis. Also, spontaneous and induced ocular HSV-1 shedding and corneal epithelial disease in rabbits has been used as a model of human ocular HSV-1 reactivation and recurrence. HSV-1 strain McKrae was used in studies for epithelial keratitis. HSV-1 strain RE was used for studies of HSV stromal keratitis.
i) Epithelial Keratitis: A group of ten rabbits was used to study each compound. Both eyes of all rabbits were used. An aqueous vehicle (like a placebo) and one positive control were obtained using 1% TFT (Viroptic®). Each compound at 1% concentration (TFT=33 mM, Gly-Gly-ACV=26.6 mM, Val-Val-ACV=18.6 mM) were applied (50 μl) topically 5 times per day every two hours starting at 8:00 a.m. and ending at 4:00 p.m. The treatment began on the 3rd post-inoculation day and continued for 5 consecutive days. Slit-lamp examinations were performed once every day for 8 days and thereafter once every other day until lesions resolved.

HSV-1 strain RE = experiment: HSV-1 stromal keratitis rabbit model, topical treatment, SLE scores; assay type: in vivo; settings: 13 days post-inoculation, 1% topical
Excerpt: as §1
ii) Stromal Keratitis: The experiment is similar to the part (i) experiment as far as the treatment cycles for all experimental drugs (TFT and Val-Val-ACV) are concerned. The effect of Val-Val-ACV on stromal keratitis induced by intrastromal injection with a high (20 μl of a 1×10^7 pfu/ml stock) titer of HSV-1RE strain was compared to that of TFT. Each compound at 1% concentration (TFT=33 mM, Val-Val-ACV=18.6 mM) was applied topically. The same scoring as noted in Table 4 is used for stromal keratitis. Emphasis is placed on the stromal edema and visibility into the aqueous chamber and the visualization of the pupil and iris.
A group of ten rabbits were used to study each compound. Both eyes of all rabbits were treated. Three to four groups of 10 rabbits are used in one experiment. This includes vehicle control, TFT, and the newly synthesized antiviral Val-Val-ACV.

EBV = experiment: In vitro antiviral screening, VCA Elisa; assay type: cell-based, epstein-barr virus
[2] = system: human fibroblast foreskin cells (HFF)
Caco-2 cell suspension = settings: Caco-2, pH 7.4
[3] = system: oligopeptide transporter on the rabbit cornea
[4] = rats, portal vein
[5] = rats, jugular vein
hPEPT1 = target: T1, hPEPT1 (Homo sapiens, UniProt P46059); experiment: [3H] Glycylsarcosine uptake and its inhibition in Caco-2 cells (affinity towards peptide transporter); assay type: cell-based; settings: for Ki: read-out: Ki
T1 construct: endogenous in cells; host or cells: Caco-2 (human colon carcinoma, ATCC)
T1 sequence (P46059 1-708): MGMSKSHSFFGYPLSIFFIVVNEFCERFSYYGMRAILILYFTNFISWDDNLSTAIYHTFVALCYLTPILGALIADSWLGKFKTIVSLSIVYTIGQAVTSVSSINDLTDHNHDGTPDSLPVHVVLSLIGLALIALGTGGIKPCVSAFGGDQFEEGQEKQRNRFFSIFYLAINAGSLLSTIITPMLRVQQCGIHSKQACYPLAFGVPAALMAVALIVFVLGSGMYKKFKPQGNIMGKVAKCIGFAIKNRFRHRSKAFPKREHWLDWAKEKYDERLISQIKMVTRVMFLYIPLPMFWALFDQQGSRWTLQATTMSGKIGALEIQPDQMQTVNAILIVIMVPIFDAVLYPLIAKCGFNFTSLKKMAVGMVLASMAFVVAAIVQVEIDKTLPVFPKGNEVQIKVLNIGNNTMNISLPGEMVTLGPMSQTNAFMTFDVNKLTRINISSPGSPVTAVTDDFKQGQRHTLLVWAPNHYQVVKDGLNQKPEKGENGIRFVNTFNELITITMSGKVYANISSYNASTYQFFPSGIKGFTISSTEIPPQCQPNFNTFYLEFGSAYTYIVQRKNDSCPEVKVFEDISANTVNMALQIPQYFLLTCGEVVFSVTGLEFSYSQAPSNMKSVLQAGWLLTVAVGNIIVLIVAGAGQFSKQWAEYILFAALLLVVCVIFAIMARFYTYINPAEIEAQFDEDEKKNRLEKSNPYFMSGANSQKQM
Excerpt: Materials: [^3H] Glycylsarcosine (Gly-Sar; 4 Ci/mmol) was purchased from Moravek Biochemicals (Brea, Calif.) and [^14C] Mannitol (50 mCi/mmol) was supplied by Amersham (Piscataway, N.J.). Human colon carcinoma derived Caco-2 cells were obtained from American Type Culture Collection (ATCC, Rockville, Md.). The growth medium, Dulbecco's modified Eagle Medium was obtained from Life Technologies (Grand Island, N.Y.). […] Fetal bovine serum (FBS) was purchased from JRH Biosciences (Lenexa, Kans.). Culture flasks (75 cm^2 growth area), polyester Transwells® (pore size 0.4 Cm with diameter 6.5 mm) and polyester membranes (pore size 0.4 Cm) were procured from Costar (Bedford, Mass.). The buffer components and solvents were obtained from Fisher Scientific (St. Louis, Mo.). All the di-peptide esters of acyclovir were custom synthesized in our laboratory. […] Cell Culture: All cultures were maintained in humidified incubator at 37° C. with a 5% carbon dioxide in air atmosphere. Caco-2 cells were obtained at passage 25 from American Type Culture Collection (ATCC) and grown in plastic tissue culture flasks. […] When 80% confluent, these cells were removed by treating them with Trypsin/EDTA and plated at a density of 100,000 cells/cm^2 on collagen coated plastic dishes containing clear polyester membranes (0.636 cm^2, […]) or 12-well tissue culture treated plastic plates. Cells were then grown in medium containing 10% FBS (heat-inactivated). […] [^14C] […] Metabolism studies in Cell Suspensions: Confluent Caco-2 cells, grown in tissue culture flasks were isolated with the aid of mechanical scraper and washed thrice with DPBS. […] One-hundred micro-liters of samples were withdrawn at predetermined time intervals and the sample was purified by precipitating the cellular proteins into the organic solvent mixture and stored at −80° C. until further analysis. The protein content of the cell suspension was determined by the method of Bradford using bovine serum albumin as the standard (BioRad protein estimation kit, Hercules, Calif.). […] Transport studies: Transport experiments were done using Side-Bi-Side™ diffusion cells (type VSC-1, Crown Glass Company Inc.) and Transwell® inserts. Prior to the experiment with Gly-Sar, Caco-2 cell monolayers grown on the clear polyester membranes and Transwell® inserts were washed with DPBS (pH 6.0) and incubated at 37° C. Freshly prepared drug solutions in DPBS (pH 6.0) was placed in the donor chamber and the receiver chamber was filled with DPBS. The volumes of donor and receptor chambers were 3 ml each for Side-Bi-Side™ diffusion cells and 0.5 ml and 1.5 ml respectively for Transwell® inserts. […] The samples were stored at −80° C. until analyzed HPLC. All experiments were performed at 37° C. […] The concentration dependent uptake of glycylsarcosine was studied using [^3H] […] For Dixon plots and Dose Response studies [^3H] […] Following incubation, the cell monolayers were washed three times with ice-cold HEPES buffer to terminate the uptake experiment. After the washings cells were lysed overnight using 1 ml 0.1% (w/v) Triton X-100 in 0.3 N NaOH at room temperature. Aliquots (500 μl) from each well were then transferred to scintillation vials containing 5 ml scintillation cocktail (Fisher Scientific, Fairlawn, N.J.). […] The amount of protein in the cell lysate was measured by the BioRad protein estimation kit using bovine serum albumin as standard (BioRad Protein estimation Kit, Hercules, Calif.). Analytical Procedures: All samples were assayed using HPLC. […] The column used was a C18 Luna column 4.6×250 mm (Phenomenex). The mobile phase consisted of a mixture of buffer and an organic modifier. The percentage of organic phase was varied in order to elute compounds of interest.

HSV-1 = experiment: In vitro antiviral screening, CPE inhibition in HFF cells; assay type: cell-based, herpes simplex virus 1; settings: read-out: EC50 (concentration required to inhibit viral cytopathogenicity by 50%)
VZV = experiment: as above; assay type: cell-based, varicella zoster virus
HCMV = experiment: as above; assay type: cell-based, human cytomegalovirus
HSV-2 = experiment: In vitro antiviral screening, CPE inhibition in HFF cells; assay type: cell-based, herpes simplex virus 2
[6] = oral 20.0 mg/kg equivalent, total concentration in terms of ACV
[7] = oral, analyte amino acid intermediate

For O=c1[nH]c(=O)n([C@H]2C[C@H](O)[C@@H](CO)O2)cc1C(F)(F)F [TFT, trifluorothymidine, reference compound], which percent survival ([1]; SIRC cells, 0.025 mM) is on record?
Its percent survival is 86.98%.

What about the percent survival ([1]; SIRC cells, 0.1 mM) of the same compound?
Its percent survival is 80.48%.

And the percent survival ([1]; SIRC cells, 0.5 mM)?
Its percent survival is 64.76%.

What about the percent survival ([1]; SIRC cells, 1 mM) of the same compound?
Its percent survival is 54.35%.

And the “% viable cells” value ([1]; SIRC cells, 5 mM)?
The value was 0.01% and 0.01±0.1%.

What about the percent survival ([1]; SIRC cells, 5 mM) of the same compound?
Its percent survival is 0.01%.

And the “Concentration required to achieve an SLE Score of 0.3” value (HSV-1 strain McKrae)?
Its value is 33.3 mM.

And the “Concentration required to achieve an SLE Score of 0.2” value (HSV-1 strain RE)?
The value was 33.3 mM.

For CC(C)C(NC(=O)CN)C(=O)OCCOCn1cnc2c(=O)[nH]c(N)nc21 (stereo not drawn) [Gly-Val-ACV, Glycine-Valine-Acyclovir], which EC50 (EBV) is on record?
Its EC50 is 5.61 µM.

And the CC50 [2]?
The CC50 was over 160 µM.

What about the “% viable cells” value [1] of the same compound?
The value was 81.1±6.7%.

And the “10^2 × kobs” value (Caco-2 cell suspension)?
Its value is 0.637 ± 0.01 min^−1mg^−1 protein.

What about the t1/2 (Caco-2 cell suspension; human) of the same compound?
Its t1/2 is 108.1 ± 2.4 min.

What about the “Papp (% Control) of [3H] Val-ACV” value [3] of the same compound?
The value was 23.7 (±6.6) % Control.

And the “AUC(0-t)(TC)” value [4, 6]?
Its value is 416.1 ± 140.9 µg·min/mL.

What about the “AUCinf(TC)” value [4, 6] of the same compound?
Its value is 598.7 ± 164.1 µg·min/mL.

What about the “Clast(TC)” value ([4]; oral) of the same compound?
Its value is 0.81 ± 0.12 µg/mL.

And the “Tmax(TC)” value ([4]; oral)?
Its value is 21.4 ± 5.77 min.

What about the “AUC(0-t)(ACV)” value ([4]; oral, analyte acyclovir) of the same compound?
Its value is 347.8 ± 108.2 µg·min/mL.

What about the “Cl(Acv)” value ([4]; oral, analyte acyclovir) of the same compound?
The value was 12.5 ± 5.5 mL/min.

And the “Cmax(ACV)” value ([4]; oral, analyte acyclovir)?
The value was 4.06 ± 1.44 µg/mL.

And the “MRT(ACV)” value ([4]; oral, analyte acyclovir)?
Its value is 64.1 ± 5.35 min.

And the “AUC(0-t)(AA)” value [4, 7]?
Its value is 143.6 ± 51.4 µg·min/mL.

What about the “Cl(AA)” value [4, 7] of the same compound?
Its value is 31.9 ± 5.3 ml min^−1I.

What about the “Cmax(AA)” value [4, 7] of the same compound?
Its value is 0.99 ± 0.54 µg/mL.

What about the “Cmax(TC)” value ([4]; oral, total concentration in terms of ACV) of the same compound?
Its value is 4.07 ± 1.03 µg/mL.

What about the “AUC(0-t)(CC)” value ([5]; oral 20.0 mg/kg equivalent) of the same compound?
Its value is 633.8 ± 115.5 µg·min/mL.

And the “AUCinf(CC)” value ([5]; oral 20.0 mg/kg equivalent)?
Its value is 900.7 ± 74.8 µg·min/mL.

What about the “Clast(CC)” value ([5]; oral) of the same compound?
The value was 1.1 ± 0.21 µg/mL.

What about the “Cmax(CC)” value ([5]; oral) of the same compound?
Its value is 7.2 ± 3.3 µg/mL.

And the “Tmax(CC)” value ([5]; oral)?
Its value is 22.2 ± 8.3 min.

What about the “AUC(0-t)(ACV)” value ([5]; oral, analyte acyclovir) of the same compound?
Its value is 571.68 ± 99.22 µg·min/mL.

And the “Cl(ACV)” value ([5]; oral, analyte acyclovir)?
The value was 13.3 ± 3.5 mL/min.

What about the “Cmax(ACV)” value ([5]; oral, analyte acyclovir) of the same compound?
The value was 6.9 ± 1.50 µg/mL.

What about the “MRT(ACV)” value ([5]; oral, analyte acyclovir) of the same compound?
The value was 79.61 ± 10.64 min.

And the “AUC(0-t)(AA)” value [5, 7]?
Its value is 133.1 ± 48.2 µg·min/mL.

What about the “Cl(AA)” value [5, 7] of the same compound?
The value was 26.8 ± 4.5 mL/min.

And the “Vmax of Gly-Sar uptake in presence of the drug” value (hPEPT1; Gly-Sar with drug (10 mM), Lineweaver-Burk)?
Its value is 0.095 ± 0.07 µmol/min/mg.

What about the Ki (hPEPT1; Lineweaver-Burk) of the same compound?
The Ki was 1.82 ± 0.34 mM.

And the Ki (hPEPT1; Michaelis-Menten)?
Its Ki is 1.42 ± 0.24 mM.

What about the EC50 (HSV-1) of the same compound?
Its EC50 is 12.6 µM.

What about the EC50 (VZV) of the same compound?
Its EC50 is 380 nM.

What about the EC50 (HCMV) of the same compound?
The EC50 was 59.5 µM.

What about the “Vmax of concentration dependent transport” value (Caco-2 monolayers) of the same compound?
Its value is 0.014±0.00058 moles cm^−2 min^−1.

And the “inhibition in transport in presence of Gly-Sar” value (Caco-2 monolayers)?
The value was 63 % inhibition.

What about the Papp (Caco-2 monolayers; Caco-2, pH 6) of the same compound?
Its Papp is 2.80±0.59 ×10^−6 cm/sec.

What about the Papp (Caco-2 monolayers; Caco-2, pH 7.4) of the same compound?
The Papp was 5.23±0.57 ×10^−6 cm/sec.

What about the Km (Caco-2 monolayers; read-out: Km of concentration dependent transport) of the same compound?
The Km was 3.16 ± 0.31 mM.

What about the EC50 (HSV-2) of the same compound?
The EC50 was 22.7 µM.
